{"source": "paper PMC11187126", "about": "“Structure and dynamics of the pyroglutamylated RF-amide peptide QRFP receptor GPR103” (Nature Communications, 2024)", "molecular_target": "T1, GPR103 I26N-termA (Homo sapiens, UniProt Q96P65, I26A)", "T1 construct": "we used human full-length QRFPR-encoding plasmids; expressed in transfected cells; host or cells: HEK293 cells, pCAGGS vector", "T1 sequence (Q96P65 1-431 I26A)": "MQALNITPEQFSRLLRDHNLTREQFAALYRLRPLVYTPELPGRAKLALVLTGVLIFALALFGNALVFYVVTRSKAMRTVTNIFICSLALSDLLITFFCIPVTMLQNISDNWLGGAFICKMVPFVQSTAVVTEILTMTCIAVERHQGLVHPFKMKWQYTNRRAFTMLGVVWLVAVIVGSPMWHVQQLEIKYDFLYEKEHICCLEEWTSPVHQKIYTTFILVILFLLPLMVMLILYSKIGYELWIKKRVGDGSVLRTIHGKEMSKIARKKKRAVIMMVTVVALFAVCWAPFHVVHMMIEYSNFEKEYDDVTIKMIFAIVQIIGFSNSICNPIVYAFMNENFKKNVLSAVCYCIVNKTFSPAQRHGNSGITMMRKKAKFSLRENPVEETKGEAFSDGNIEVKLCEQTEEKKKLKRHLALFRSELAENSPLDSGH", "assay": "TGFα shedding assay; Exp. level WT (1:20)", "format": "cell-based", "note": "No end group written: not given here.", "data": [{"substance": "TSGPLGNLAEELNGYSRKKGGFSFRF-NH2 [QRFP26]", "values": [{"measurement": "Emax", "setting": "mean", "result": 95.1, "unit": "%"}, {"measurement": "EC50", "setting": "n = 3", "result": 43.7, "unit": "nM"}, {"measurement": "Emax", "setting": "n = 3", "result": "97.6 ± 5", "unit": "%"}]}]}
